Results from PubChem BioAssay (NCI).
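Dose response: 5 concentrations. Exposure: 48 h. Format: 96-well plates. Endpoint: linear interpolation; highest concentration if not reached. Definition used: TGI = concentration required for complete inhibition of growth.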

Assays:
Test in all cases: NCI-60 cell line screen, 48 h
[1] = test system: OVCAR-5 ovarian
[2] = test system: HOP-62 NSCLC
[3] = test system: CCRF-CEM leukemia
[4] = test system: HCT-15 colon
[5] = test system: A498 renal
[6] = test system: K-562 leukemia
[7] = test system: UACC-257 melanoma
[8] = test system: LOX IMVI melanoma
[9] = test system: MCF7 breast
[10] = test system: UACC-62 melanoma
[11] = test system: OVCAR-4 ovarian
[12] = test system: NCI-H522 lung
[13] = test system: U251 CNS
[14] = test system: IGROV1 ovarian
[15] = test system: A549 NSCLC
[16] = test system: CAKI-1 renal
[17] = test system: SK-MEL-2 melanoma
[18] = test system: RPMI-8226 leukemia
[19] = test system: NCI-H460 lung
[20] = test system: SW-620 colon
[21] = test system: NCI-H23 lung
[22] = test system: SN12C renal
[23] = test system: HT29 colon
[24] = test system: RXF 393 renal
[25] = test system: NCI/ADR-RES ovarian
[26] = test system: HS 578T breast
[27] = test system: TK-10 renal
[28] = test system: SNB-19 CNS
[29] = test system: M14 melanoma
[30] = test system: SF-295 CNS
[31] = test system: OVCAR-8 ovarian
[32] = test system: MDA-MB-231 breast
[33] = test system: MDA-MB-435
[34] = test system: BT-549 breast
[35] = test system: SF-539 CNS
[36] = test system: SK-OV-3 ovarian
[37] = test system: SK-MEL-5 melanoma
[38] = test system: EKVX NSCLC
[39] = test system: MOLT-4 leukemia
[40] = test system: KM12 colon
[41] = test system: HCT-116 colon
[42] = test system: OVCAR-3 ovarian
[43] = test system: HOP-92 NSCLC
[44] = test system: MDA-N
[45] = test system: DU-145 prostate
[46] = test system: COLO 205 colon
[47] = test system: PC-3 prostate
[48] = test system: NCI-H226 lung
[49] = test system: UO-31 renal
[50] = test system: SNB-75 CNS
[51] = test system: MALME-3M melanoma
[52] = test system: SK-MEL-28 melanoma
[53] = test system: T-47D breast
[54] = test system: ACHN renal
[55] = test system: SF-268 CNS
[56] = test system: SR leukemia
[57] = test system: 786-0 renal
[58] = test system: HCC-2998 colon

## COC(=O)Cc1c(-c2[nH]c3ccccc3c2CC(=O)OC)[nH]c2ccccc12
[1]
  TGI: > 100 µM
[2]
  TGI: > 100 µM
[3]
  TGI: > 100 µM
[4]
  TGI: > 100 µM
[5]
  TGI: > 100 µM
[6]
  TGI: > 100 µM
[7]
  TGI: > 100 µM
[8]
  TGI: > 100 µM
[9]
  TGI: > 100 µM
[10]
  TGI: > 100 µM
[11]
  TGI: > 100 µM
[12]
  TGI: > 100 µM
[13]
  TGI: > 100 µM
[14]
  TGI: > 100 µM
[15]
  TGI: > 100 µM
[16]
  TGI: > 100 µM
[17]
  TGI: > 100 µM
[18]
  TGI: > 100 µM
[19]
  TGI: > 100 µM
[20]
  TGI: > 100 µM
[21]
  TGI: > 100 µM
[22]
  TGI: > 100 µM
[23]
  TGI: > 100 µM
[24]
  TGI: > 100 µM
[25]
  TGI: > 100 µM
[26]
  TGI: > 100 µM
[27]
  TGI: > 100 µM
[28]
  TGI: > 100 µM
[29]
  TGI: > 100 µM
[30]
  TGI: > 100 µM
[31]
  TGI: > 100 µM
[32]
  TGI: > 100 µM
[33]
  TGI: > 100 µM
[34]
  TGI: > 100 µM
[35]
  TGI: > 100 µM
[36]
  TGI: > 100 µM
[37]
  TGI: > 100 µM
[38]
  TGI: > 100 µM
[39]
  TGI: > 100 µM
[40]
  TGI: > 100 µM
[41]
  TGI: > 100 µM
[42]
  TGI: > 41.2 µM
[43]
  TGI: > 100 µM
[44]
  TGI: > 100 µM
[45]
  TGI: > 100 µM
[46]
  TGI: > 100 µM
[47]
  TGI: > 100 µM
[48]
  TGI: > 100 µM
[49]
  TGI: > 100 µM
[50]
  TGI: > 100 µM
[51]
  TGI: > 100 µM
[52]
  TGI: > 100 µM
[53]
  TGI: > 100 µM
[54]
  TGI: > 100 µM
[55]
  TGI: > 100 µM
[56]
  TGI: > 100 µM
[57]
  TGI: > 100 µM
[58]
  TGI: > 100 µM

## CC12c3c4cccc3Oc3cc(N)cc(c31)Oc1cc(N)cc(c12)O4
[1]
  TGI: 16.1 µM
[2]
  TGI: 18.2 µM
[3]
  TGI: 3.74 µM
[4]
  TGI: > 36.7 µM
[5]
  TGI: 34 µM
[6]
  TGI: > 51.5 µM
[7]
  TGI: 18.3 µM
[8]
  TGI: > 41.9 µM
[9]
  TGI: > 40.6 µM
[10]
  TGI: 18.5 µM
[11]
  TGI: 23.9 µM
[12]
  TGI: 4.74 µM
[13]
  TGI: > 100 µM
[14]
  TGI: 13.6 µM
[15]
  TGI: > 40.7 µM
[16]
  TGI: 24.9 µM
[17]
  TGI: 26.5 µM
[18]
  TGI: > 38.1 µM
[19]
  TGI: > 37.6 µM
[20]
  TGI: 22.6 µM
[21]
  TGI: > 46 µM
[22]
  TGI: 28.6 µM
[23]
  TGI: 40.3 µM
[24]
  TGI: 2.67 µM
[25]
  TGI: > 26.3 µM
[26]
  TGI: 28.1 µM
[27]
  TGI: 25.3 µM
[28]
  TGI: 38.5 µM
[29]
  TGI: 19.6 µM
[30]
  TGI: 9.2 µM
[31]
  TGI: 32 µM
[32]
  TGI: 27.4 µM
[33]
  TGI: 4.4 µM
[34]
  TGI: 13 µM
[35]
  TGI: 11.8 µM
[36]
  TGI: 14.8 µM
[37]
  TGI: 13 µM
[38]
  TGI: 9.52 µM
[39]
  TGI: 40.2 µM
[40]
  TGI: > 39.7 µM
[41]
  TGI: 9.44 µM
[42]
  TGI: 7.04 µM
[43]
  TGI: 74.5 µM
[44]
  TGI: 3.59 µM
[45]
  TGI: 22.6 µM
[46]
  TGI: 12.1 µM
[47]
  TGI: 12.1 µM
[48]
  TGI: 13.6 µM
[49]
  TGI: > 50.6 µM
[50]
  TGI: 14.7 µM
[51]
  TGI: 10.8 µM
[52]
  TGI: 27.6 µM
[53]
  TGI: > 48.5 µM
[54]
  TGI: 23.1 µM
[55]
  TGI: 10.5 µM
[56]
  TGI: 22.6 µM
[57]
  TGI: 8.72 µM
[58]
  TGI: > 39 µM
